Reference: patent US11866518B2, “Bicyclic peptide ligands specific for TSLP” (BicycleTx Limited, priority 2020, dated 2024)
Read-outs that look alike come from different tables or passages of the source.

Settings: the molecule shown is the open-chain precursor, crosslinker bond, 29-membered ring, TATA/NH4HCO3, MeCN/H2O

Ac-Cys-MeAla-Trp(1-Me)-Ala(tBu)-Gln-Asp-Cys-Trp(1-Me)-ADMA-Gly-Phe(4-F)-Cys-NH2?
ring closure, yield after HPLC: 19%

H-Cys-MeAla-Nal1-Ala(tBu)-Gln-Asp-Cys-Trp(1-Me)-ADMA-Gly-Phe(4-F)-Cys-dAla-NH2?
ring closure, yield after HPLC (0.93 mM): 17%

N3CH2C(O)NH(CH2CH2O)3CH2CH2(CO)-Cys-MeAla-Trp(1-Me)-Ala(tBu)-Gln-Asp-Cys-Trp(1-Me)-ADMA-Gly-Phe(4-F)-Cys-NH2
ring closure, yield after HPLC: 12%

n-octanoyl-Cys-MeAla-Trp(1-Me)-Ala(tBu)-Gln-Asp-Cys-Trp(1-Me)-ADMA-Gly-Phe(4-F)-Cys-NH2
ring closure, yield after HPLC: 14%
